In brackets after ≈: the same amount, converted by molar mass.
Key:
Streptococcus pyogenes = test: In vivo activity, experimentally infected mice (ED50); details: Streptococcus pyogenes infection; doses administered subcutaneously to mice 1 and 4 hours postinfection
Enterococcus faecium X66 = test: MIC, standard agar-dilution assay; assay type: cell-based
Procedure: (§1) The formula I compounds have in vitro and in vivo activity against Gram-positive pathogenic bacteria. The MIC's were determined using a standard agar-dilution assays.
^b Formerly Streptococcus faecium X66

Streptococcus pneumoniae = test: In vivo activity, experimentally infected mice (ED50); details: Streptococcus pneumoniae infection; doses administered subcutaneously to mice 1 and 4 hours postinfection
Escherichia coli EC14 = test: MIC, standard agar-dilution assay; assay type: cell-based
Procedure: as §1

[1] = tested on: Staphylococcus epidermidis EPI270; test: MIC, standard agar-dilution assay; assay type: cell-based
Procedure: as §1

[2] = tested on: Staphylococcus aureus NRRL X1.1; test: MIC, standard agar-dilution assay; assay type: cell-based
Procedure: as §1

[3] = tested on: Staphylococcus epidermidis 222; test: MIC, standard agar-dilution assay; assay type: cell-based
Procedure: as §1

Escherichia coli N10 = test: MIC, standard agar-dilution assay; assay type: cell-based
Procedure: as §1

[4] = tested on: Staphylococcus aureus V41; test: MIC, standard agar-dilution assay; assay type: cell-based
Procedure: as §1

[5] = tested on: Klebsiella pneumoniae X26; test: MIC, standard agar-dilution assay; assay type: cell-based
Procedure: as §1

Escherichia coli TEM = test: MIC, standard agar-dilution assay; assay type: cell-based
Procedure: as §1

[6] = tested on: Klebsiella pneumoniae KAE; test: MIC, standard agar-dilution assay; assay type: cell-based
Procedure: as §1

[7] = tested on: Haemophilus influenzae 76; test: MIC, standard agar-dilution assay; assay type: cell-based
Procedure: as §1

[8] = tested on: Staphylococcus aureus X400; test: MIC, standard agar-dilution assay; assay type: cell-based
Procedure: as §1

[9] = tested on: Haemophilus influenzae C.L.; test: MIC, standard agar-dilution assay; assay type: cell-based
Procedure: as §1

[10] = tested on: Klebsiella pneumoniae X68; test: MIC, standard agar-dilution assay; assay type: cell-based
Procedure: as §1

[11] = tested on: Streptococcus pyogenes C203; test: MIC, standard agar-dilution assay; assay type: cell-based
Procedure: as §1

[12] = tested on: Streptococcus pneumoniae Park 1; assay type: cell-based
Procedure: as §1

[13] = tested on: Staphylococcus aureus S13E; assay type: cell-based
Procedure: as §1

Staphylococcus aureus = test: In vivo activity, experimentally infected mice (ED50); details: Staphylococcus aureus infection; doses administered subcutaneously to mice 1 and 4 hours postinfection
[14] = tested on: Enterococcus faecalis 2041; test: MIC, standard agar-dilution assay; assay type: cell-based
Procedure: as §1
^c Formerly Streptococcus faecalis 2041

SMILES	ED50 (Streptococcus pyogenes) [mg/kg/2]	MIC (Enterococcus faecium X66)	ED50 (Streptococcus pneumoniae) [mg/kg/2]	MIC (Escherichia coli EC14) [µg/mL]	MIC [1]	MIC [2]	MIC [3]	MIC (Escherichia coli N10) [µg/mL]	MIC [4]	MIC [5] [µg/mL]	MIC (Escherichia coli TEM) [µg/mL]	MIC [6] [µg/mL]	MIC [7] [µg/mL]	MIC [8]	MIC [9] [µg/mL]	MIC [10] [µg/mL]	MIC [11]	MIC [12]	MIC [13]	ED50 (Staphylococcus aureus) [mg/kg/2]	other results
CCCCCN[C@@]1(C)C[C@H](O[C@H]2[C@H](Oc3c4cc5cc3Oc3ccc(cc3Cl)[C@@H](O[C@H]3C[C@](C)(N)[C@@H](O)[C@H](C)O3)[C@@H]3NC(=O)[C@H](NC(=O)[C@@H]5NC(=O)[C@H](CC(N)=O)NC(=O)[C@H](NC(=O)[C@@H](CC(C)C)NC)[C@H](O)c5ccc(c(Cl)c5)O4)c4ccc(O)c(c4)-c4c(O)cc(O)cc4[C@@H](C(=O)O)NC3=O)O[C@H](CO)[C@@H](O)[C@@H]2O)O[C@@H](C)[C@@H]1O [Compound 34]	0.44	.5 µg/mL (≈ 0.301 µM)	0.44	> 128	2 µg/mL (≈ 1.2 µM)	.5 µg/mL (≈ 0.301 µM)	.5 µg/mL (≈ 0.301 µM)	> 128	.5 µg/mL (≈ 0.301 µM)	> 128	> 128	> 128	> 128	1 µg/mL (≈ 0.601 µM)	> 128	> 128	.5 µg/mL (≈ 0.301 µM)	.5 µg/mL (≈ 0.301 µM)	.5 µg/mL (≈ 0.301 µM)	0.77	MIC [14]: 1 µg/mL (≈ 0.601 µM)
CNC(CC(C)C)C(=O)NC1C(=O)NC(CC(N)=O)C(=O)NC2C(=O)NC3C(=O)NC(C(=O)NC(C(=O)O)c4cc(O)cc(O)c4-c4cc3ccc4O)C(OC3CC(C)(N)C(O)C(C)O3)c3ccc(c(Cl)c3)Oc3cc2cc(c3OC2OC(CO)C(O)C(O)C2OC2CC(C)(NCc3ccccc3)C(O)C(C)O2)Oc2ccc(cc2Cl)C1O (stereo not drawn) [Compound 51]	0.16	.25 µg/mL (≈ 0.149 µM)	0.35	> 128	1 µg/mL (≈ 0.594 µM)	.25 µg/mL (≈ 0.149 µM)	.5 µg/mL (≈ 0.297 µM)	> 128	.5 µg/mL (≈ 0.297 µM)	> 128	> 128	> 128	> 128	.5 µg/mL (≈ 0.297 µM)	> 128	> 128	.25 µg/mL (≈ 0.149 µM)	.125 µg/mL (≈ 0.0743 µM)	.25 µg/mL (≈ 0.149 µM)	0.34	MIC [14]: .5 µg/mL (≈ 0.297 µM)
CNC(CC(C)C)C(=O)NC1C(=O)NC(CC(N)=O)C(=O)NC2C(=O)NC3C(=O)NC(C(=O)NC(C(=O)O)c4cc(O)cc(O)c4-c4cc3ccc4O)C(OC3CC(C)(N)C(O)C(C)O3)c3ccc(c(Cl)c3)Oc3cc2cc(c3OC2OC(CO)C(O)C(O)C2OC2CC(C)(NCc3ccccc3Cl)C(O)C(C)O2)Oc2ccc(cc2Cl)C1O (stereo not drawn) [Compound 62]	0.20	.25 µg/mL (≈ 0.146 µM)	0.17	> 128	1 µg/mL (≈ 0.582 µM)	.5 µg/mL (≈ 0.291 µM)	.5 µg/mL (≈ 0.291 µM)	> 128	.5 µg/mL (≈ 0.291 µM)	> 128	> 128	> 128	> 128	1 µg/mL (≈ 0.582 µM)	> 128	> 128	.125 µg/mL (≈ 0.0728 µM)	.125 µg/mL (≈ 0.0728 µM)	1 µg/mL (≈ 0.582 µM)	0.77	MIC [14]: .5 µg/mL (≈ 0.291 µM)
CNC(CC(C)C)C(=O)NC1C(=O)NC(CC(N)=O)C(=O)NC2C(=O)NC3C(=O)NC(C(=O)NC(C(=O)O)c4cc(O)cc(O)c4-c4cc3ccc4O)C(OC3CC(C)(N)C(O)C(C)O3)c3ccc(c(Cl)c3)Oc3cc2cc(c3OC2OC(CO)C(O)C(O)C2OC2CC(C)(NCc3cccc(Cl)c3)C(O)C(C)O2)Oc2ccc(cc2Cl)C1O (stereo not drawn) [Compound 64]	0.94	.25 µg/mL (≈ 0.146 µM)	0.10	> 128	.25 µg/mL (≈ 0.146 µM)	.25 µg/mL (≈ 0.146 µM)	.5 µg/mL (≈ 0.291 µM)	> 128	.25 µg/mL (≈ 0.146 µM)	> 128	> 128	> 128	> 128	.5 µg/mL (≈ 0.291 µM)	> 128	> 128	.06 µg/mL (≈ 0.0349 µM)	.25 µg/mL (≈ 0.146 µM)	.5 µg/mL (≈ 0.291 µM)	0.55	MIC [14]: .25 µg/mL (≈ 0.146 µM)
CNC(CC(C)C)C(=O)NC1C(=O)NC(CC(N)=O)C(=O)NC2C(=O)NC3C(=O)NC(C(=O)NC(C(=O)O)c4cc(O)cc(O)c4-c4cc3ccc4O)C(OC3CC(C)(NCc4ccccc4)C(O)C(C)O3)c3ccc(cc3)Oc3cc2cc(c3OC2OC(CO)C(O)C(O)C2O)Oc2ccc(cc2Cl)C1O (stereo not drawn) [Compound 70]	2.38	2 µg/mL (≈ 1.33 µM)	3.76	> 128	.5 µg/mL (≈ 0.332 µM)	2 µg/mL (≈ 1.33 µM)	2 µg/mL (≈ 1.33 µM)	> 128	2 µg/mL (≈ 1.33 µM)	> 128	> 128	> 128	> 128	2 µg/mL (≈ 1.33 µM)	> 128	> 128	2 µg/mL (≈ 1.33 µM)	2 µg/mL (≈ 1.33 µM)	2 µg/mL (≈ 1.33 µM)	4.10	MIC [14]: 2 µg/mL (≈ 1.33 µM)
CNC(CC(C)C)C(=O)NC1C(=O)NC(CC(N)=O)C(=O)NC2C(=O)NC3C(=O)NC(C(=O)NC(C(=O)O)c4cc(O)cc(O)c4-c4cc3ccc4O)C(OC3CC(C)(NCc4ccccc4)C(O)C(C)O3)c3ccc(cc3)Oc3cc2cc(c3O)Oc2ccc(cc2Cl)C1O (stereo not drawn) [Compound 73]	7.30	1 µg/mL (≈ 0.745 µM)	> 8.0	> 128	.25 µg/mL (≈ 0.186 µM)	1 µg/mL (≈ 0.745 µM)	2 µg/mL (≈ 1.49 µM)	> 128	1 µg/mL (≈ 0.745 µM)	> 128	> 128	> 128	> 64	1 µg/mL (≈ 0.745 µM)	> 128	> 128	1 µg/mL (≈ 0.745 µM)	1 µg/mL (≈ 0.745 µM)	1 µg/mL (≈ 0.745 µM)	> 8.0	MIC [14]: 2 µg/mL (≈ 1.49 µM)
CNC(CC(C)C)C(=O)NC1C(=O)NC(CC(N)=O)C(=O)NC2C(=O)NC3C(=O)NC(C(=O)NC(C(=O)O)c4cc(O)cc(O)c4-c4cc3ccc4O)C(OC3CC(C)(NCc4ccccc4)C(O)C(C)O3)c3ccc(c(Cl)c3)Oc3cc2cc(c3OC2OC(CO)C(O)C(O)C2O)Oc2ccc(cc2Cl)C1O (stereo not drawn) [Compound 76]	0.62	1 µg/mL (≈ 0.65 µM)	0.42	> 128	2 µg/mL (≈ 1.3 µM)	.25 µg/mL (≈ 0.162 µM)	.5 µg/mL (≈ 0.325 µM)	> 128	.25 µg/mL (≈ 0.162 µM)	> 128	> 128	> 128	> 128	.25 µg/mL (≈ 0.162 µM)	> 128	> 128	.5 µg/mL (≈ 0.325 µM)	1 µg/mL (≈ 0.65 µM)	.25 µg/mL (≈ 0.162 µM)	0.87	MIC [14]: 1 µg/mL (≈ 0.65 µM)

Reference: patent US5591714A, “Derivatives of A82846” (priority 1994, dated 1997)
